pIC50: −log10 of the molar value. The source made the active and inactive calls.
Columns and labels:
Bacillus cereus = assay: Antibacterial activity against Bacillus cereus at 100 ug after 24 hrs by agar well diffusion method; assay type: functional, organism-based
Streptococcus pyogenes = assay: Antibacterial activity against Streptococcus pyogenes at 100 ug after 24 hrs by agar well diffusion method; assay type: functional, organism-based
Staphylococcus aureus = assay: Antibacterial activity against […] at 100 ug after 24 hrs by agar well diffusion method; assay type: functional, organism-based
Escherichia coli = assay: Antibacterial activity against Escherichia coli at 100 ug after 24 hrs by agar well diffusion method; assay type: functional, organism-based
Proteus mirabilis = assay: Antibacterial activity against Proteus mirabilis at 100 ug after 24 hrs by agar well diffusion method; assay type: functional, organism-based
Salmonella typhi = assay: Antibacterial activity against Salmonella typhi at 100 ug after 24 hrs by agar well diffusion method; assay type: functional, organism-based; settings: Salmonella enterica subsp. enterica serovar Typhi
[1] = Inhibition of alpha-glucosidase 4

C=C(C)[C@@H]1CC[C@]2(C)CC[C@]3(C)[C@H](CC[C@@H]4[C@@]5(C)CC[C@H](OC(=O)CCCCCCCCCCCCCCCCC)C(C)(C)[C@@H]5[C@@H](O)C[C@]43C)[C@@H]12
inactive: Activity (Bacillus cereus) | Activity (Streptococcus pyogenes) | Activity (Staphylococcus aureus) | Activity (Escherichia coli) | Activity (Proteus mirabilis) | Activity (Salmonella typhi)

C=C(C)[C@@H]1CC[C@]2(C)CC[C@]3(C)[C@H](CC[C@@H]4[C@@]5(C)CC[C@H](O)C(C)(C)[C@@H]5[C@@H](O)C[C@]43C)[C@@H]12
4.37: pIC50 [1]

From ChEMBL document CHEMBL1142635, “Lupene-type triterpenes from Periploca aphylla” (J Nat Prod, 2000)
